For 47 compounds, IC50 results are on record in patent US20060252807A1, “Novel ortho-terphenyl inhibitors of p38 kinase and methods of treating inflammatory disorders” (Kalypsys, Inc., priority 2005, published 2006).

For one experiment, the target named is T1, active p38 alpha enzyme (Upstate Biotechnology) (Homo sapiens, UniProt Q16539).
T1 construct: purchased Upstate Biotechnology
T1 sequence (Q16539 whole entry): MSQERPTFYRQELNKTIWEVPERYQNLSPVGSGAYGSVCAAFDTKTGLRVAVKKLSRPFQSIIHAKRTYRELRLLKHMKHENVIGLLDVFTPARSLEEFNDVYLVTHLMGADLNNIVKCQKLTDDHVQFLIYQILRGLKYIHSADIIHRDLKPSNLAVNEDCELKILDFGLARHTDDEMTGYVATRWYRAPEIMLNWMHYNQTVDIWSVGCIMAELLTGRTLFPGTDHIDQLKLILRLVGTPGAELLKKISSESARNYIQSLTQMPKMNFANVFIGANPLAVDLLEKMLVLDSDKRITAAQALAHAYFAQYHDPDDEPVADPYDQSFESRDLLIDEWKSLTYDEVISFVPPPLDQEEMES
The experiment can be described thus: p38α biochemical assay (ATP turnover, luminescent detection, Cambrex PKlight). The following applies: p38α biochemical assay, Table 1 Biological Activity. In a few lines:
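Active human p38α was incubated with full-length MapkapK2 protein as substrate and 1.4 uM ATP (final) for 2 hours at 30C. Buffer: 200 mM Tris, 100 mM MgCl2, 1.5 mM EGTA, 4 mM CaCl2, 20 mM MOPS, 1 mM EDTA, 1% glycerol, 0.1% β-mercaptoethanol, 1 mg/ml BSA. Total ATP turnover read by luminescence.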
`Cc1nc(Br)sc1C(=O)NCc1nc(-c2ccc(F)cc2)c(-c2nc(C(=O)NC(C)C)cs2)o1` [Example 302]: the IC50 was not above 1 µM. As for `CC(C)NC(=O)c1csc(-c2oc(CNC(=O)C3CCc4ccccc43)nc2-c2ccc(F)cc2)n1` (centres unmarked) [Example 164], the IC50 was more than 1 µM.

For the compound `CC(C)NC(=O)c1csc(-c2oc(CNC(=O)c3ccc(OCc4ccccc4)cc3)nc2-c2ccc(F)cc2)n1` [Example 308], the half-inhibitory concentration (IC50) is not above 1 µM. Same read-out and setting: in the case of `CC(C)NC(=O)c1csc(-c2oc(CN3CCN(C(=O)C4CCCO4)CC3)nc2-c2ccc(F)cc2)n1` (centres unmarked) [Example 346] it was more than 1 µM; in that of `CC(C)NC(=O)c1csc(-c2oc(CN3CCNCC3)nc2-c2ccc(F)cc2)n1` [Example 572], more than 1 µM; in that of `CC(C)NC(=O)c1csc(-c2oc(CNC(=O)c3cc(Br)ccc3Cl)nc2-c2ccc(F)cc2)n1` [Example 320], not above 1 µM. In turn, `CCCc1ccc(C(=O)NCc2nc(-c3ccc(F)cc3)c(-c3nc(C(=O)NC(C)C)cs3)o2)cc1` [Example 176] displayed an IC50 of more than 1 µM. Compound `CC(C)NC(=O)c1csc(-c2oc(CNC(=O)c3cc(O)ccc3O)nc2-c2ccc(F)cc2)n1` [Example 146] showed an IC50 not above 1 µM. The same measure, in the same setting: under `CC(C)NC(=O)c1csc(-c2oc(CNC(=O)c3ccc(C=O)cc3)nc2-c2ccc(F)cc2)n1` [Example 133] stands not above 1 µM. Turning to `CC(C)NC(=O)c1csc(-c2oc(CN3CCN(C(=O)c4ncc[nH]4)CC3)nc2-c2ccc(F)cc2)n1` [Example 343], the IC50 is not above 1 µM. In the case of `CCCCOc1ccc(C(=O)NCc2onc(-c3ccc(F)cc3)c2-c2nc(C(=O)NC(C)C)cs2)cc1` [Example 738], the IC50 is more than 1 µM. For `CC(C)NC(=O)c1csc(-c2oc(CN3CCN(C(=O)c4ccc(OCc5ccccc5)cc4)CC3)nc2-c2ccc(F)cc2)n1` [Example 545], the IC50 was more than 1 µM. Take `COc1ccc([N+](=O)[O-])c(C(=O)NCc2onc(-c3ccc(F)cc3)c2-c2nc(C(=O)NC(C)C)cs2)c1` [Example 740]: the IC50 is more than 1 µM. In the case of `Cc1ccc(C(=O)CCC(=O)N2CCN(Cc3nc(-c4ccc(F)cc4)c(-c4nc(C(=O)NC(C)C)cs4)o3)CC2)cc1` [Example 493], the half-inhibitory concentration (IC50) is more than 1 µM. Compound `Cc1ccccc1CCC(=O)NCc1onc(-c2ccc(F)cc2)c1-c1nc(C(=O)NC(C)C)cs1` [Example 647] returned an IC50 of more than 1 µM.

For `CCC(=O)C(=O)NCc1onc(-c2ccc(F)cc2)c1-c1nc(C(=O)NC(C)C)cs1` [Example 577], the IC50 was more than 1 µM. On to `CC(C)NC(=O)c1csc(-c2oc(CNC(=O)c3cc4ccccc4o3)nc2-c2ccc(F)cc2)n1` [Example 163], for which the IC50 is more than 1 µM. Regarding `Cc1cc(C)c(C(=O)N2CCN(Cc3nc(-c4ccc(F)cc4)c(-c4nc(C(=O)NC(C)C)cs4)o3)CC2)c(C)c1` [Example 412], the IC50 was not above 1 µM. `COc1ccccc1/C=C/C(=O)N1CCN(Cc2nc(-c3ccc(F)cc3)c(-c3nc(C(=O)NC(C)C)cs3)o2)CC1` [Example 442] displayed an IC50 not above 1 µM. The compound `CC(C)NC(=O)c1csc(-c2oc(CNC(=O)c3cc([N+](=O)[O-])ccc3O)nc2-c2ccc(F)cc2)n1` [Example 234] showed an IC50 not above 1 µM.

Staying with this experiment, now noted: p38α kinase; Table 1 Biological Activity.
Regarding `CC(C)NC(=O)c1csc(-c2oc(CNCCN3CCCCC3)nc2-c2ccc(F)cc2)n1` [Example 1108], the IC50 was more than 1 µM. `CC(C)NC(=O)c1csc(-c2c(-c3ccc(F)cc3)n[nH]c2C2CCN(C(=O)c3ccc(Oc4cccc(O)c4)cc3)CC2)n1` [Example 1026] gave an IC50 of more than 1 µM. Still for that read-out and setting: under `Cc1nc(-c2ccc(F)cc2)c(-c2nc(C(=O)NCC(=O)c3ccccc3)cs2)s1` [Example 1815] stands more than 1 µM. In turn, `CCN(CCCCO)Cc1onc(-c2ccc(F)cc2)c1-c1nc(C(=O)NC(C)C)cs1` [Example 1540] showed an IC50 of more than 1 µM.

Consider `CC(C)NC(=O)c1csc(-c2c(-c3ccc(F)cc3)n[nH]c2C2CCN(C(=O)C(C)(C)C)CC2)n1` [Example 817], for which the IC50 is not above 1 µM. `COc1cccc(N2CCN(C(=O)c3csc(-c4sc(C)nc4-c4ccc(F)cc4)n3)CC2)c1` [Example 1922] registered an IC50 of more than 1 µM. On to `Cc1cc(C)c(NC(=O)c2csc(-c3sc(C)nc3-c3ccc(F)cc3)n2)c(C)c1` [Example 1986], for which the half-inhibitory concentration (IC50) is more than 1 µM.

Regarding `CC(C)NC(=O)c1csc(-c2c(-c3ccc(F)cc3)n[nH]c2C2CCN(C(=O)c3c4ccccc4cc4ccccc34)CC2)n1` [Example 1017], the IC50 was more than 1 µM.

With `CC(C)NC(=O)c1csc(-c2c(-c3ccc(F)cc3)n[nH]c2C2CCN(C(=O)c3ccc4c(c3)OCO4)CC2)n1` [Example 891], the 50% inhibitory concentration (IC50) was more than 1 µM. As for `Cc1cccc(NCc2onc(-c3ccc(F)cc3)c2-c2nc(C(=O)NC(C)C)cs2)c1` [Example 1631], the IC50 is more than 1 µM. Compound `Cc1nc(-c2ccc(F)cc2)c(-c2nc(C(=O)NCCc3ccc(Cl)cc3)cs2)s1` [Example 1803] registered an IC50 not above 1 µM. `O=C(CNC(=O)c1csc(-c2c(-c3ccc(F)cc3)n[nH]c2C2CCNCC2)n1)c1ccccc1` [Example 2140] showed an IC50 of more than 1 µM. As for `CC(C)NC(=O)c1csc(-c2c(-c3ccc(F)cc3)noc2CNC(C)CO)n1` (centres unmarked) [Example 1396], the IC50 is more than 1 µM. Regarding `O=C(NCc1cccs1)c1csc(-c2c(-c3ccc(F)cc3)n[nH]c2C2CCNCC2)n1` [Example 2065], the half-inhibitory concentration (IC50) is more than 1 µM. In the case of `CC(=O)Nc1ccc(NCc2onc(-c3ccc(F)cc3)c2-c2nc(C(=O)NC(C)C)cs2)cc1` [Example 1675], the IC50 was more than 1 µM. Compound `CC(C)NC(=O)c1csc(-c2c(-c3ccc(F)cc3)n[nH]c2C2CCN(C(=O)c3cc(Br)ccc3Cl)CC2)n1` [Example 1034] had an IC50 of more than 1 µM. For the compound `Cc1nc(-c2ccc(F)cc2)c(-c2nc(C(=O)Nc3ccc4c(c3)CCC4)cs2)s1` [Example 1981], the IC50 was more than 1 µM. The same measure, in the same setting: under `Cc1cccc(C(C)(C)C)c1NCc1nc(-c2ccc(F)cc2)c(-c2nc(C(=O)NC(C)C)cs2)o1` [Example 1358] stands more than 1 µM; under `COc1cc(C(=O)N2CCC(c3[nH]nc(-c4ccc(F)cc4)c3-c3nc(C(=O)NC(C)C)cs3)CC2)cc(OC)c1O` [Example 980], more than 1 µM; under `CC(C)NC(=O)c1csc(-c2oc(CN3CCSCC3)nc2-c2ccc(F)cc2)n1` [Example 1204], more than 1 µM. `CC(C)NC(=O)c1csc(-c2c(-c3ccc(F)cc3)noc2CNCCc2ccccc2F)n1` [Example 1459] yielded a half-maximal inhibitory concentration (IC50) of more than 1 µM.

`CC(C)NC(=O)c1csc(-c2c(-c3ccc(F)cc3)n[nH]c2C2CCN(C(=O)c3cc([N+](=O)[O-])ccc3F)CC2)n1` [Example 949] came in with a 50% inhibitory concentration (IC50) of more than 1 µM. `Cc1c(Cl)cccc1NCc1nc(-c2ccc(F)cc2)c(-c2nc(C(=O)NC(C)C)cs2)o1` [Example 1344] displayed a half-maximal inhibitory concentration (IC50) of more than 1 µM. `Cc1ccc([C@H](C)NCc2onc(-c3ccc(F)cc3)c2-c2nc(C(=O)NC(C)C)cs2)cc1` [Example 1446] registered an IC50 of more than 1 µM. For the compound `CC(C)NC(=O)c1csc(-c2c(-c3ccc(F)cc3)n[nH]c2C2CCN(C(=O)c3ccc4cccc(O)c4n3)CC2)n1` [Example 960], the IC50 is more than 1 µM. `C#CCN(Cc1ccc(Cl)cc1Cl)C(=O)c1csc(-c2sc(C)nc2-c2ccc(F)cc2)n1` [Example 1941] gave an IC50 of more than 1 µM. Same read-out and setting: in the case of `CC(C)CN(C)Cc1nc(-c2ccc(F)cc2)c(-c2nc(C(=O)NC(C)C)cs2)o1` [Example 1192] it was more than 1 µM.
